Reference: the OligoGym collection
HELM strings list units from the 5' end as sugar, base in round brackets, then linkage (d deoxyribose, r ribose, m 2'-O-methyl, p phosphodiester). Strings are as the collection lists them; they lack the last nucleoside at the 3' end of the tested compound. [moe] = 2'-O-(2-methoxyethyl) (MOE); [sp] = phosphorothioate linkage; [m5C] = 5-methylcytosine

What follows are substances tested against ATXN2 (assay: mouse, dose not given). Settings: ASO.
“RNA1{[moe](G)[sp].[moe](A)p.[moe](A)p.[moe]([m5C])p.[moe]([m5C])p.d(A)[sp].d(G)[sp].d(A)[sp].d(A)[sp].d(T)[sp].d(T)[sp].d([m5C])[sp].d(G)[sp].d(G)[sp].d(G)[sp].[moe](T)p.[moe](T)p.[moe](G)[sp].[moe](A)}$$$$ (last 3' nucleoside missing)” showed a 3 h FOB score of 3.75 score 0-7. In the case of “RNA1{[moe](G)[sp].[moe](A)p.[moe](G)p.[moe](T)p.[moe](T)p.d(T)[sp].d(T)[sp].d(T)[sp].d(G)[sp].d([m5C])[sp].d([m5C])[sp].d(T)[sp].d(T)[sp].d([m5C])[sp].d([m5C])[sp].[moe](A)p.[moe](T)p.[moe](T)[sp].[moe](T)}$$$$ (last 3' nucleoside missing)”, the 3 h FOB score is reported as 1 score 0-7. For “RNA1{[moe](G)[sp].[moe](A)p.[moe](G)p.[moe](T)p.[moe](T)p.d([m5C])[sp].d(A)[sp].d([m5C])[sp].d([m5C])[sp].d(T)[sp].d(G)[sp].d([m5C])[sp].d(A)[sp].d(T)[sp].d([m5C])[sp].[moe]([m5C])p.[moe]([m5C])p.[moe](A)[sp].[moe](G)}$$$$ (last 3' nucleoside missing)”, the 3 h FOB score was 6 score 0-7. In the case of “RNA1{[moe](G)[sp].[moe](A)p.[moe](T)p.[moe](A)p.[moe](T)p.d(G)[sp].d(T)[sp].d(T)[sp].d(A)[sp].d([m5C])[sp].d(A)[sp].d(A)[sp].d(A)[sp].d(T)[sp].d(T)[sp].[moe]([m5C])p.[moe](T)p.[moe]([m5C])[sp].[moe](T)}$$$$ (last 3' nucleoside missing)”, the 3 h FOB score is reported as 0 score 0-7. In the case of “RNA1{[moe](G)[sp].[moe](A)p.[moe](T)p.[moe](G)p.[moe](T)p.d(T)[sp].d(T)[sp].d([m5C])[sp].d(A)[sp].d(T)[sp].d(T)[sp].d(G)[sp].d(G)[sp].d(G)[sp].d(T)[sp].[moe](T)p.[moe](T)p.[moe](A)[sp].[moe](A)}$$$$ (last 3' nucleoside missing)”, the 3 h FOB score is reported as 6.25 score 0-7. “RNA1{[moe](G)[sp].[moe](A)p.[moe](T)p.[moe](T)p.[moe](A)p.d(A)[sp].d([m5C])[sp].d(G)[sp].d(G)[sp].d(T)[sp].d(T)[sp].d(G)[sp].d([m5C])[sp].d(T)[sp].d(T)[sp].[moe](A)p.[moe](G)p.[moe](G)[sp].[moe](G)}$$$$ (last 3' nucleoside missing)” was tested, and the 3 h FOB score was 6.5 score 0-7. Substance “RNA1{[moe](G)[sp].[moe](A)p.[moe](T)p.[moe](T)p.[moe]([m5C])[sp].d(T)[sp].d(G)[sp].d(T)[sp].d(A)[sp].d([m5C])[sp].d(T)[sp].d(T)[sp].d(T)[sp].[moe](T)p.[moe]([m5C])p.[moe](T)[sp].[moe]([m5C])}$$$$ (last 3' nucleoside missing)” has a 3 h FOB score of 1 score 0-7. In the case of “RNA1{[moe](G)[sp].[moe](A)p.[moe](T)p.[moe](T)p.[moe]([m5C])p.d(T)[sp].d(G)[sp].d(T)[sp].d(A)[sp].d([m5C])[sp].d(T)[sp].d(T)[sp].d(T)[sp].d(T)[sp].d([m5C])[sp].[moe](T)p.[moe]([m5C])p.[moe](A)[sp].[moe](T)}$$$$ (last 3' nucleoside missing)”, the 3 h FOB score is reported as 4.5 score 0-7. In the case of “RNA1{[moe](G)[sp].[moe](A)p.[moe]([m5C])p.[moe](A)p.[moe](T)p.d(G)[sp].d([m5C])[sp].d(G)[sp].d(G)[sp].d(T)[sp].d(T)[sp].d(T)[sp].d([m5C])[sp].d(A)[sp].d([m5C])[sp].[moe]([m5C])p.[moe](A)p.[moe](T)[sp].[moe](T)}$$$$ (last 3' nucleoside missing)”, the 3 h FOB score is reported as 4 score 0-7. “RNA1{[moe](G)[sp].[moe](G)[sp].[moe](A)[sp].[moe](G)[sp].[moe]([m5C])[sp].d(T)[sp].d(G)[sp].d(G)[sp].d(A)[sp].d(G)[sp].d(A)[sp].d(A)[sp].d([m5C])[sp].d([m5C])[sp].d(A)[sp].[moe](T)[sp].[moe](G)[sp].[moe](A)[sp].[moe](G)}$$$$ (last 3' nucleoside missing)” gave a 3 h FOB score of 7 score 0-7. “RNA1{[moe](G)[sp].[moe](G)p.[moe](A)p.[moe](A)p.[moe](T)p.d([m5C])[sp].d(T)[sp].d(T)[sp].d(A)[sp].d(T)[sp].d(T)[sp].d(A)[sp].d(A)[sp].d(G)[sp].d([m5C])[sp].[moe](A)p.[moe](A)p.[moe](G)[sp].[moe](T)}$$$$ (last 3' nucleoside missing)” gave a 3 h FOB score of 4.5 score 0-7. In the case of “RNA1{[moe](G)[sp].[moe](G)p.[moe](A)p.[moe](T)p.[moe](A)p.d([m5C])[sp].d(A)[sp].d(A)[sp].d(A)[sp].d(T)[sp].d(T)[sp].d([m5C])[sp].d(T)[sp].d(A)[sp].d(G)[sp].[moe](G)p.[moe]([m5C])p.[moe]([m5C])[sp].[moe](A)}$$$$ (last 3' nucleoside missing)”, the 3 h FOB score is reported as 4 score 0-7. Substance “RNA1{[moe](G)[sp].[moe](G)p.[moe](A)p.[moe](T)p.[moe](T)[sp].d([m5C])[sp].d(T)[sp].d(G)[sp].d(T)[sp].d(A)[sp].d([m5C])[sp].d(T)[sp].d(T)[sp].[moe](T)p.[moe](T)p.[moe]([m5C])[sp].[moe](T)}$$$$ (last 3' nucleoside missing)” has a 3 h FOB score of 2.5 score 0-7. Substance “RNA1{[moe](G)[sp].[moe](G)p.[moe](A)p.[moe](T)p.[moe](T)p.d(G)[sp].d(T)[sp].d(T)[sp].d(T)[sp].d(T)[sp].d([m5C])[sp].d(T)[sp].d(T)[sp].d([m5C])[sp].d(A)[sp].[moe](T)p.[moe](T)p.[moe](A)[sp].[moe](T)}$$$$ (last 3' nucleoside missing)” has a 3 h FOB score of 0 score 0-7. Work on “RNA1{[moe](G)[sp].[moe](G)p.[moe](A)p.[moe](T)p.[moe](T)p.d([m5C])[sp].d(T)[sp].d(G)[sp].d(T)[sp].d(A)[sp].d([m5C])[sp].d(T)[sp].d(T)[sp].d(T)[sp].d(T)[sp].[moe]([m5C])p.[moe](T)p.[moe]([m5C])[sp].[moe](A)}$$$$ (last 3' nucleoside missing)” yielded a 3 h FOB score of 1 score 0-7. “RNA1{[moe](G)[sp].[moe](G)p.[moe](A)p.[moe]([m5C])p.[moe](A)p.d(A)[sp].d(G)[sp].d(A)[sp].d(A)[sp].d(A)[sp].d(T)[sp].d(T)[sp].d(T)[sp].d(T)[sp].d([m5C])[sp].[moe](A)p.[moe](G)p.[moe](T)[sp].[moe](T)}$$$$ (last 3' nucleoside missing)” was tested, and the 3 h FOB score was 4.5 score 0-7. With “RNA1{[moe](G)[sp].[moe](G)p.[moe](T)p.[moe](A)p.[moe](A)p.d([m5C])[sp].d(A)[sp].d(G)[sp].d([m5C])[sp].d(T)[sp].d([m5C])[sp].d(T)[sp].d(G)[sp].d(T)[sp].d(T)[sp].[moe]([m5C])p.[moe](G)p.[moe](A)[sp].[moe](T)}$$$$ (last 3' nucleoside missing)” the 3 h FOB score was 7 score 0-7. In the case of “RNA1{[moe](G)[sp].[moe](G)p.[moe](T)p.[moe](A)p.[moe]([m5C])p.d(A)[sp].d([m5C])[sp].d(A)[sp].d(G)[sp].d(T)[sp].d(T)[sp].d(T)[sp].d([m5C])[sp].d(A)[sp].d([m5C])[sp].[moe](T)p.[moe](A)p.[moe](G)[sp].[moe](G)}$$$$ (last 3' nucleoside missing)”, the 3 h FOB score is reported as 4.75 score 0-7. “RNA1{[moe](G)[sp].[moe](G)p.[moe](T)p.[moe](G)p.[moe](A)p.d(T)[sp].d(G)[sp].d(T)[sp].d(T)[sp].d(T)[sp].d([m5C])[sp].d(A)[sp].d(T)[sp].d(T)[sp].d(G)[sp].[moe](G)p.[moe](G)p.[moe](T)[sp].[moe](T)}$$$$ (last 3' nucleoside missing)” showed a 3 h FOB score of 4.5 score 0-7. “RNA1{[moe](G)[sp].[moe](G)p.[moe](T)p.[moe](G)p.[moe](G)[sp].d(T)[sp].d(G)[sp].d(T)[sp].d(G)[sp].d([m5C])[sp].d(G)[sp].d([m5C])[sp].d(A)[sp].[moe](T)p.[moe](G)p.[moe](T)[sp].[moe](A)}$$$$ (last 3' nucleoside missing)” was tested, and the 3 h FOB score was 7 score 0-7. “RNA1{[moe](G)[sp].[moe](G)p.[moe](T)p.[moe](G)p.[moe](G)p.d(T)[sp].d(G)[sp].d(T)[sp].d(G)[sp].d([m5C])[sp].d(G)[sp].d([m5C])[sp].d(A)[sp].d(T)[sp].d(G)[sp].[moe](T)p.[moe](A)p.[moe](G)[sp].[moe](A)}$$$$ (last 3' nucleoside missing)” was tested, and the 3 h FOB score was 7 score 0-7. “RNA1{[moe](G)[sp].[moe](G)p.[moe](T)p.[moe]([m5C])p.[moe](A)p.d(A)[sp].d(G)[sp].d(G)[sp].d(T)[sp].d([m5C])[sp].d(A)[sp].d(A)[sp].d(T)[sp].d(A)[sp].d([m5C])[sp].[moe](T)p.[moe](T)p.[moe](T)[sp].[moe](T)}$$$$ (last 3' nucleoside missing)” was tested, and the 3 h FOB score was 2 score 0-7. “RNA1{[moe](G)[sp].[moe](G)p.[moe]([m5C])p.[moe](T)p.[moe](G)p.d(G)[sp].d(A)[sp].d(A)[sp].d(G)[sp].d(T)[sp].d([m5C])[sp].d(T)[sp].d(G)[sp].d(A)[sp].d(A)[sp].[moe]([m5C])p.[moe]([m5C])p.[moe]([m5C])[sp].[moe]([m5C])}$$$$ (last 3' nucleoside missing)” showed a 3 h FOB score of 6 score 0-7. For “RNA1{[moe](G)[sp].[moe](T)[sp].[moe](G)[sp].[moe](G)[sp].[moe](G)[sp].d(A)[sp].d(T)[sp].d(A)[sp].d([m5C])[sp].d(A)[sp].d(A)[sp].d(A)[sp].d(T)[sp].d(T)[sp].d([m5C])[sp].[moe](T)[sp].[moe](A)[sp].[moe](G)[sp].[moe](G)}$$$$ (last 3' nucleoside missing)”, the 3 h FOB score was 7 score 0-7. “RNA1{[moe](G)[sp].[moe](T)p.[moe](A)p.[moe](A)p.[moe]([m5C])p.d(A)[sp].d(A)[sp].d(T)[sp].d(T)[sp].d(G)[sp].d(T)[sp].d(A)[sp].d(A)[sp].d(A)[sp].d(T)[sp].[moe]([m5C])p.[moe]([m5C])p.[moe](A)[sp].[moe](T)}$$$$ (last 3' nucleoside missing)” showed a 3 h FOB score of 0.75 score 0-7. “RNA1{[moe](G)[sp].[moe](T)p.[moe](A)p.[moe](G)p.[moe](T)p.d(G)[sp].d(T)[sp].d(T)[sp].d(T)[sp].d(G)[sp].d(G)[sp].d(G)[sp].d(A)[sp].d(T)[sp].d(G)[sp].[moe]([m5C])p.[moe](T)p.[moe](T)[sp].[moe]([m5C])}$$$$ (last 3' nucleoside missing)” was tested, and the 3 h FOB score was 6 score 0-7. With “RNA1{[moe](G)[sp].[moe](T)p.[moe](A)p.[moe](T)p.[moe](G)[sp].d(T)[sp].d(T)[sp].d(T)[sp].d(G)[sp].d(T)[sp].d([m5C])[sp].d(T)[sp].d(G)[sp].[moe](T)p.[moe]([m5C])p.[moe](T)[sp].[moe](T)}$$$$ (last 3' nucleoside missing)” the 3 h FOB score was 6.5 score 0-7.
